Laboratory results published in US12653827B2, “Methods of treating indolent systemic mastocytosis” (Telios Pharma Inc., priority 2024, dated 2026).

Tests used:
[1] = system: calcium influx in human mast cells; assay: Calcium flux assay in antigen-stimulated human mast cells; assay type: cell-based; details: treated 2 hours, NP-BSA stimulation
Method: Human mast cells were derived from bone marrow CD34+ cells from six healthy donors for up to eight weeks by culturing CD34+ cells in StemSpan SFEM II (Stem Cell Technologies) supplemented with stem cell factor (SCF; 100 ng/mL; R&D System), IL-6 (R&D Systems), IL-3 (R&D Systems) and 1% penicillin/streptomycin (P/S; Gibco) for the first 10 days and in StemSpan SFEM II supplemented with SCF and IL-6 and 1% P/S for the remaining time in culture. […] Supernatant was collected and histamine levels were measured using a Histamine ELISA kit (Eagle Biosciences). […] Percent of activated mast cells was calculated as number of activated mast cells over the total number of mast cells.
Compound 128 Inhibits Calcium Signaling in Human Mast Cells. […] The median fluorescence intensity of cytosolic calcium was measured across the stimulation time period and graphed to represent the calcium influx profile. The area under the curve (AUC) of the calcium influx profile was calculated and normalized as a percent of stimulated control. […]

[2] = system: downstream signaling proteins; assay: Downstream signaling proteins in antigen-stimulated mast cells (FIG. 20); assay type: cell-based; details: mast cells stimulated with an antigen
mast cells [3] = assay: Degranulation of mast cells grown from CD34+ blood cells of ISM patients (FIG. 22); assay type: cell-based; details: absence of SCF at the time of stimulation
mast cells [4] = assay: Monomeric IgE-mediated degranulation and cytokine production in mast cells; assay type: cell-based, human; details: mast cells from a healthy donor, treated 2 hours, myeloma IgE with SCF
Method: Mast cells from a healthy donor were starved of SCF for 18 hours and treated with Compound 128 for 2 hours. Mast cells were stimulated with SCF (100 ng/mL) or myeloma IgE (3 μg/mL; Millipore Sigma) alone or in combination for 30 minutes (CD63 and Histamine) or 24 hours (cytokine production), respectively. For the histamine and cytokine test, supernatant was collected and the levels of histamine and cytokines were measured as set forth in Example 4 for histamine and Example 7 for cytokines. For the CD63 test, the cells were stained for CD63, data was acquired on a flow cytometer and percent activated mast cells calculated as set forth in Example 4. […] The monomeric IgE contribution to degranulation and cytokine production is inhibited by Compound 128.

BTK = BTK (Homo sapiens, UniProt Q06187); assay: MRGPRX2-induced BTK phosphorylation in ISM-like mast cells; assay type: cell-based; set-up: endogenous in cells; host or cells: Primary human mast cells differentiated from bone marrow CD34+ cells of healthy donors, cultured with SCF; details: 0.1 μM; C48/80 stimulation
Method: Human mast cells were differentiated from bone marrow CD34+ cells from four healthy donors and were cultured in the presence of SCF (100 ng/mL) to mimic mast cells in ISM and treated with Compound 128 for two hours prior to stimulation. Mas-related G protein-coupled receptor (MRGPRX2) agonists, Compound 48/80 (C48/80; a product of N-methyl-p-methoxyphenethylamine with formaldehyde) or Substance P (SP) were used to activate the MRGPRX2 pathway. For pBTK test, cells were stimulated with C48/80 (10 μg/mL) for ten minutes at 37° C. and cells were stained. The median fluorescence intensity of phosphorylated BTK was measured. The fold change over unstimulated control for pBTK was calculated. For cytokine test, cells were stimulated with C48/80 (10 μg/mL) or SP (30 μM) for four hours at 37° C. Supernatant was collected and cytokine levels were measured using the BD Cytometric Bead Array (CBA) human soluble protein master buffer kit (Becton Dickinson) and BD CBA human soluble protein flex sets for IL-8, MCP-1, GM-CSF and IL-13 (Becton Dickinson). Cytokine levels were measured and normalized to percent of control, with 0% representing the level of the unstimulated control.

Chain of BTK (Q06187 whole entry): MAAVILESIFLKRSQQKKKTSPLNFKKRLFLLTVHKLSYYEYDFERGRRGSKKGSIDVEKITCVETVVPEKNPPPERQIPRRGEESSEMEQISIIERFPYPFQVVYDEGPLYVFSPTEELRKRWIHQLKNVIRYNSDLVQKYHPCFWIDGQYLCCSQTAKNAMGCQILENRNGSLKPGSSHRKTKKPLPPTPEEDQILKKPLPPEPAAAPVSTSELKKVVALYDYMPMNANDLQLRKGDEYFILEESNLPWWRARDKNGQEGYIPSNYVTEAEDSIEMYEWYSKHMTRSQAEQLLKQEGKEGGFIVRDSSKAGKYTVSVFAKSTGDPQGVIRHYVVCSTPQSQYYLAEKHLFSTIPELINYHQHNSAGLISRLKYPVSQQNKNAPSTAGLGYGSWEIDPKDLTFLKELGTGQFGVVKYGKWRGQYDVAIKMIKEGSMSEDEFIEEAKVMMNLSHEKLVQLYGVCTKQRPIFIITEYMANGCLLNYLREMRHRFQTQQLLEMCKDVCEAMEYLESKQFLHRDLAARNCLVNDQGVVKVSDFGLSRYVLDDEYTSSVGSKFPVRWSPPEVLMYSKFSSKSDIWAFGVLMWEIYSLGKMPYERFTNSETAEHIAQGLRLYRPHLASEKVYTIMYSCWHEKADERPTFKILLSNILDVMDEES

MRGPRX2-induced BTK phosphorylation (BTK): inhibited
SMILES: C=CC(=O)N1CCC(F)(CNc2ncnc(N)c2-c2ccc(Oc3ccccc3)cc2)CC1 [Compound 128, 1-(4-(((6-amino-5-(4-phenoxyphenyl)pyrimidin-4-yl)amino)methyl)-4-fluoropiperidin-1-yl)prop-2-en-1-one]
mast cells undergoing calcium influx (AUC, percent of stimulated control) ([1]; ISM-like (+SCF) mast cells): less than 7% | mast cells undergoing calcium influx (AUC, percent of stimulated control) ([1]; healthy (−SCF) mast cells): < 3% | activation of multiple downstream signaling proteins [2]: can be inhibited | degranulation of ISM patient-derived mast cells (mast cells [3]): inhibited | monomeric IgE contribution to degranulation and cytokine production (mast cells [4]): inhibited
